Columns and labels:
[1] = Solubility of dye to organic solvent; assay type: physicochemical; conditions: 50° C., mass % of the dye to the mass of the entire solution; for Solubility to organic solvent: MIBK: methyl isobutyl ketone
Procedure: Regarding the dyes (A11-1) to (A11-10) and (A11-20) to (A11-27) obtained above, solubility to organic solvent was evaluated as follows.
Three kinds of solvents, cyclohexanone, methyl isobutyl ketone (MIBK), toluene, were used as the organic solvent in the solubility test. Note that in Table 3, % is mass % of the dye to the mass of the entire solution. Further, the temperature of each organic solvent in the solubility test was 50° C.

[2] = Absorption characteristics: transmission spectrum of near-infrared absorbing layer of NIR filter (UV-visible spectrophotometer); assay type: physicochemical
Procedure: Further, the transmittance of the near-infrared absorbing layer can be measured by using an ultraviolet visible light spectrophotometer. For example, when the near-infrared absorbing layer is provided on a glass substrate, the transmittance is calculated by subtracting the transmittance of only the glass substrate. Note that the transmittance of light of the near-infrared absorbing layer refers to, unless otherwise stated, a ratio to light incident from a direction orthogonal to a main surface of a sample, the ratio of this light traveling straight inside the sample and transmitted to an opposite side. Further, when the transmittance is measured by making light incident from a direction other than the direction orthogonal to the main surface of the sample in the measurement of transmittance of light, an angle made by a straight line indicating the direction of the incident light to a line orthogonal to the main surface is called an incident angle.
In the condition (ii-3), the value calculated by nd(B)×(λa−λc) (hereinafter, this value may also be described as “Is value”) is a value to be an index indicating steepness of the absorption curve in the vicinity of the boundary between the visible light region and the near-infrared region with respect to a transmission spectrum of the near-infrared absorbing layer. When this value is 115 or less, the absorption curve in the vicinity of the boundary between the visible light region and the near-infrared region is steep with respect to the near-infrared absorbing layer, which can be said as preferable for the NIR filter.
That is, with respect to the transmission spectrum of the near-infrared absorbing layer, the smaller the difference (λa−λc) between the shortest wavelength λa with transmittance of 1% in the region of 650 nm to 800 nm and the wavelength λc with transmittance of 70% on a shorter wavelength side than the λa, the steeper the absorption curve in the vicinity of the boundary between the visible light region and the near-infrared region. Here, λa−λc also depends on a wavelength width having transmittance of 1% or less (λb−λa; λb is the longest wavelength with transmittance of 1% in the wavelength region of 650 nm to 800 nm). Accordingly, in order to compare and evaluate the steepness of the absorption curve in the above region of the transmission spectrum of the near-infrared absorbing layer, λb−λa is fixed to 30 nm. That is, λb−λa of the near-infrared absorbing layer which the present filter has is not limited to 30 nm.
Further, in the Is value, (λa−λc) is multiplied by the refractive index nd(B) of the transparent resin (B) contained in the near-infrared absorbing layer as a coefficient. This is to standardize the difference in steepness among resins.
Regarding transmittance (%/nm) of the NIR filters 1 to 109 obtained above, transmission spectra were measured and calculated by using an ultraviolet visible light spectrophotometer (U-4100 type spectrophotometer made by Hitachi High-Technologies Corporation). Analysis results of transmission spectra of the near-infrared absorbing layers which the NIR filters have are presented in Table 4, Table 5 and Table 6 for the NIR filters 1 to 25, 26 to 51, 52 to 75, respectively, and are presented in Table 7 and Table 8 for the NIR filters 76 to 94, 95 to 109, respectively. In Table 4 to Table 8, the ratios (parts by mass) of dyes to 100 parts by mass of the transparent resin (B) and film thicknesses of the near-infrared absorbing layers are described together.
Further, conditions of preferred transmission spectra of the near-infrared absorbing layers in the present filter and Is values obtained by the formula: nd(B)×(λa-λc) described in above (ii-3) are described in Table 4 to Table 8 together with λa in the condition (ii-1) and λb-λa in the condition (ii-2). Note that values described in Table 4 to Table 8 are values obtained by subtracting transmittance of a glass plate from transmittance of an NIR filter. […]

[3] = transparent resin acrylic resin BR50, nd(B) 1.56, film thickness 2.3 μm
[4] = transparent resin polycarbonate EP5000, nd(B) 1.63, film thickness 2.4 μm
[5] = transparent resin polycarbonate SP3810, nd(B) 1.63, film thickness 1.0 μm
[6] = transparent resin polycarbonate SP3810, nd(B) 1.63, film thickness 2.8 μm

SMILES | Solubility to organic solvent: Cyclohexanone [1] [%< mass %] | Solubility to organic solvent: MIBK [1] [%< mass %] | Solubility to organic solvent: Toluene [1] [%< mass %] | 430 nm to 600 nm Average transmittance [2, 3] [%] | Is value (nd(B)×(λa-λc)) [2, 3] | λa [2, 3] [nm] | λa − λc [2, 3] [nm] | λb [2, 3] [nm] | λb − λa [2, 3] [nm] | λc [2, 3] [nm] | λmax [2, 3] [nm] | 430 nm to 600 nm Average transmittance [2, 4] [%] | Is value (nd(B)×(λa-λc)) [2, 4] | λa [2, 4] [nm] | λa − λc [2, 4] [nm] | λb [2, 4] [nm] | λb − λa [2, 4] [nm] | λc [2, 4] [nm] | λmax [2, 4] [nm] | 430 nm to 600 nm Average transmittance [2, 5] [%] | other results
CCCCCCCCCC(CCCCCCC)C(=O)Nc1cc2c(cc1C1=C([O-])C(=c3cc4c(cc3NC(=O)C(CCCCCCC)CCCCCCCCC)=[N+](C)C(C)C4(C)C)C1=O)C(C)(C)C(C)N2C (stereo not shown) [Example A11-3] | 10 | 10 | 10 |  |  |  |  |  |  |  |  |  |  |  |  |  |  |  |  |  | 
CCN1c2cc(NC(=O)C(C)(C)CCCOc3cc(C)ccc3C)c(C3=C([O-])C(=c4cc5c(cc4NC(=O)C(C)(C)CCCOc4cc(C)ccc4C)=[N+](CC)C(C)C5(C)C)C3=O)cc2C(C)(C)C1C (stereo not shown) [Example A11-8] | 10 | 10 | 10 |  |  |  |  |  |  |  |  |  |  |  |  |  |  |  |  |  | 
Cc1ccc(C)c(OCCCC(C)(C)C(=O)Nc2cc3c(cc2C2=C([O-])C(=c4cc5c(cc4NC(=O)C(C)(C)CCCOc4cc(C)ccc4C)=[N+](C)C(C)C5(C)C)C2=O)C(C)(C)C(C)N3C)c1 (stereo not shown) [Example A11-13] |  |  |  | 94.8 | 110.9 | 683 | 71 | 713 | 30 | 612 | 700 | 96.1 | 111.0 | 689 | 68 | 719 | 30 | 621 | 705 | 97.3 | Is value (nd(B)×(λa-λc)) [2, 5]: 112.8; λa [2, 5]: 689 nm; λa − λc [2, 5]: 69 nm; λb [2, 5]: 719 nm; λb − λa [2, 5]: 30 nm; λc [2, 5]: 620 nm; λmax [2, 5]: 700 nm; 430 nm to 600 nm Average transmittance [2, 6]: 95.1%; Is value (nd(B)×(λa-λc)) [2, 6]: 112.8; λa [2, 6]: 689 nm; λa − λc [2, 6]: 69 nm; λb [2, 6]: 719 nm; λb − λa [2, 6]: 30 nm; λc [2, 6]: 620 nm; λmax [2, 6]: 705 nm

More lines, main results first:

Solubility to organic solvent: Cyclohexanone [1] [%< mass %] | Solubility to organic solvent: MIBK [1] [%< mass %] | Solubility to organic solvent: Toluene [1] [%< mass %] | 430 nm to 600 nm Average transmittance [2, 3] [%] | Is value (nd(B)×(λa-λc)) [2, 3] | λa [2, 3] [nm] | λa − λc [2, 3] [nm] | λb [2, 3] [nm] | λb − λa [2, 3] [nm] | λc [2, 3] [nm] | λmax [2, 3] [nm] | 430 nm to 600 nm Average transmittance [2, 4] [%] | Is value (nd(B)×(λa-λc)) [2, 4] | λa [2, 4] [nm] | λa − λc [2, 4] [nm] | λb [2, 4] [nm] | λb − λa [2, 4] [nm] | λc [2, 4] [nm] | λmax [2, 4] [nm] | 430 nm to 600 nm Average transmittance [2, 5] [%] | SMILES | other results
10 | 10 | 10 |  |  |  |  |  |  |  |  |  |  |  |  |  |  |  |  |  | CCCCC(CC)C(=O)Nc1cc2c(cc1C1=C([O-])C(=c3cc4c(cc3NC(=O)C(CC)CCCC)=[N+](CC)C(C)C4(C)C)C1=O)C(C)(C)C(C)N2CC (stereo not shown) [Example A11-5] | 
10 | 10 | 10 |  |  |  |  |  |  |  |  |  |  |  |  |  |  |  |  |  | CCCCC(CC)C(=O)Nc1cc2c(cc1C1=C([O-])C(=c3cc4c(cc3NC(=O)C(CC)CCCC)=[N+](CCC)C(C)C4(C)C)C1=O)C(C)(C)C(C)N2CCC (stereo not shown) [Example A11-6] | 
 |  |  | 94.7 | 110.9 | 684 | 71 | 714 | 30 | 613 | 700 | 95.5 | 112.6 | 689 | 69 | 719 | 30 | 620 | 705 | 97.1 | CCCC(C)(C)C(=O)Nc1cc2c(cc1C1=C([O-])C(=c3cc4c(cc3NC(=O)C(C)(C)CCC)=[N+](C)C(C)C4(C)C)C1=O)C(C)(C)C(C)N2C (stereo not shown) [Example A11-14] | Is value (nd(B)×(λa-λc)) [2, 5]: 112.8; λa [2, 5]: 689 nm; λa − λc [2, 5]: 69 nm; λb [2, 5]: 719 nm; λb − λa [2, 5]: 30 nm; λc [2, 5]: 620 nm; λmax [2, 5]: 700 nm; 430 nm to 600 nm Average transmittance [2, 6]: 95.6%; Is value (nd(B)×(λa-λc)) [2, 6]: 111.2; λa [2, 6]: 689 nm; λa − λc [2, 6]: 68 nm; λb [2, 6]: 719 nm; λb − λa [2, 6]: 30 nm; λc [2, 6]: 621 nm; λmax [2, 6]: 705 nm

Source: patent US10495796B2, “Near-infrared cut filter” (AGC INC., priority 2012, dated 2019)
